From patent US20190300857A1, “UNDIFFERENTIATED STEM CELL-REMOVING AGENT, AND METHOD FOR REMOVING UNDIFFERENTIATED STEM CELLS” (KEIO UNIVERSITY, priority 2016, published 2019) come the findings set out here.

Format in all cases: cell-based
Assay [1] concerns 253G4: human induced pluripotent stem cell (human iPS cell) line. Nature of the assay: Culture of undifferentiated stem cell line in Orlistat-containing medium, ALP staining of living cells. The following applies: Orlistat 0, 2, 4, 6, 8, 10 μM, 72 hours, StemFit or mTeSR1, FIG. 3. The protocol: (§1) Orlistat (manufactured by Sigma, 04139) was added into StemFit medium (manufactured by AJINOMOTO) or mTeSR1 (manufactured by Stem Cell Technologies) so that each of a final concentration became concentrations as shown in FIG. 3 (2 μM, 4 μM, 6 μM, 8 μM, and 10 μM). Therefore a culture medium according to one embodiment of the present invention was obtained. The following three cell lines were cultured for 72 hours in each of a culture medium not containing Orlistat (0 μM) and the culture media containing Orlistat at each of the above final concentrations. • 253G4: human induced pluripotent stem cell (human iPS cell) line • Ffl14: human induced pluripotent stem cell (human iPS cell) line • H9: human embryonic stem cell (human ES cell) line In regard to the activity of alkaline phosphatase (ALP) that the cells have, after 72 hours of culture, AP staining was performed by color development with […] (registered trademark) alkaline phosphatase staining kit (Sigma 86-R), and cells stained red were confirmed as living cells.

Assay [2] deals with Ffl14: human induced pluripotent stem cell (human iPS cell) line. The assay is described as above. To be noted: Orlistat 0, 2, 4, 6, 8, 10 μM, 72 hours, StemFit or mTeSR1, FIG. 3. The method, then: as §1
The test system of assay [3] is H9: human embryonic stem cell (human ES cell) line. The description is as above. The following applies: Orlistat 0, 2, 4, 6, 8, 10 μM, 72 hours, StemFit or mTeSR1, FIG. 3. The method, then:
as §1

Assay [4] deals with undifferentiated stem cells expressing OCT4 in cell mixture of cardiomyocytes derived from human iPS cells and human iPS cells. Briefly: Culture of cell mixture of iPS-derived cardiomyocytes and iPS cells in Orlistat-containing medium, OCT4 immunostaining. The following applies: Orlistat 10 μM (Orlistat(+)); 72 hours; StemFit or mTeSR1; FIGS. 7 to 8. The method, then:
A cell mixture in a state in which purified and refined cardiomyocytes induced from human iPS cells and human iPS cells coexisted was prepared according to the procedure described above. In the cell mixture, immunostaining against OCT4 was performed. The cell mixture was cultured for 72 hours in StemFit medium (manufactured by AJINOMOTO) or mTeSR1 (manufactured by Stem Cell Technologies) containing Orlistat at a final concentration of 10 μM (Orlistat(+)). As a control, culture was carried out in the same manner in StemFit medium (manufactured by AJINOMOTO) or mTeSR1 (manufactured by Stem Cell Technologies) not containing Orlistat (Orlistat(−)). After culturing for 72 hours, cells expressing OCT4 were detected by immunostaining. In addition, the results of DAPI staining are also shown together. The results of three replicate tests in which the number of colonies of cells expressing Oct4 was quantified based on the results are shown in FIG. 8.

The subject of assay [5] is human iPS cell line (253G4). Nature of the assay: Culture of human iPS cell line with Orlistat with or without palmitic acid, LIVE/DEAD Assay. To be noted: Orlistat 0, 2, 6, 8 μM, 72 hours, FIGS. 13 to 14. The method, then:
Orlistat (manufactured by Sigma, 04139) was added into StemFit medium (manufactured by AJINOMOTO) or mTeSR1 (manufactured by Stem Cell Technologies) so that each of a final concentration became concentrations as shown in FIG. 13 (2 μM, 6 μM, and 8 μM). Therefore a culture medium according to one embodiment of the present invention was obtained. Media obtained by adding palmitic acid (final concentration 50 μM), carnitine (final concentration 0.5 mM), and BSA (final concentration 8.3 μM) to each of the culture medium (0 μM) not containing Orlistat and the culture media containing Orlistat at the above final concentrations; and media obtained by adding only carnitine (final concentration 0.5 mM) and BSA (final concentration 8.3 μM) thereto were prepared. The human iPS cell line (253G4) was cultured for 72 hours in each of the above-mentioned media. After 72 hours of culture, live cells were detected with LIVE/DEAD Assay (L3224, manufactured by Thermo Fisher Scientific).

Take `CCCCCCCCCCC[C@@H](C[C@@H]1OC(=O)[C@H]1CCCCCC)OC(=O)[C@H](CC(C)C)NC=O` [Orlistat, N-formyl-L-leucine-(1S)-1-[[(2S,3S)-3-hexyl-4-oxo-2-oxetanyl]methyl]dodecyl ester]: the “cell death of undifferentiated stem cells (ALP staining)” value in assay [1], in assay [2] and in assay [3] was “cell death of each undifferentiated stem cell was induced in an Orlistat concentration-dependent manner” in each case. For the same compound, the “residual undifferentiated stem cells expressing OCT4” value in assay [4] is listed as “no residual undifferentiated stem cells expressing OCT4 were detected”. Further, the “cell death of human iPS cells (LIVE/DEAD Assay)” value in assay [5] (culture medium (BSA): only carnitine 0.5 mM and BSA 8.3 μM added) is “cell death of human iPS cells was induced in an Orlistat concentration-dependent manner”; in assay [5] (culture medium (PA-BSA): palmitic acid 50 μM, carnitine 0.5 mM and BSA 8.3 μM added), “cell death of human iPS cells was suppressed”.
